In brackets after ≈: the same amount, converted by molar mass.
Legend:
[1] = system: Staph. aureus; assay: Antimicrobial serial dilution (MIC), S.a; assay type: cell-based; conditions: Staphylococcus aureus
[2] = system: S. typhi; assay: Antimicrobial serial dilution (MIC), S.t; assay type: cell-based; conditions: Salmonella enterica
[3] = system: S.Shigae; assay: microbe, parasite or virus in culture; assay type: cell-based; conditions: Shigella dysenteriae, read-out: MIC S.s
[4] = system: E.coli; assay: Antimicrobial serial dilution (MIC), E.c.; assay type: cell-based; conditions: Escherichia coli
[5] = system: Proteus vulgaris ox 19; assay: Antimicrobial serial dilution (MIC), Pr.ox; assay type: cell-based; conditions: OX19
[6] = system: Ps. aeruginosa; assay: Antimicrobial serial dilution (MIC), P.a; assay type: cell-based; conditions: Pseudomonas aeruginosa
[7] = system: antibiotic resistant Staph aureus; assay: Antimicrobial serial dilution (MIC), A/R S.a; assay type: cell-based; conditions: Staphylococcus aureus, read-out: MIC A/R S.a
[8] = system: microsporum gypseum; assay: Antimicrobial serial dilution (MIC), M.gy; assay type: cell-based; conditions: Nannizzia gypsea
[9] = system: Candida albicans; assay: Antimicrobial serial dilution (MIC), C.a; assay type: cell-based
[10] = system: Aspergillus fumigatus; assay: Antimicrobial serial dilution (MIC), A.f; assay type: cell-based
[11] = system: Nocardia asteroides; assay: Antimicrobial serial dilution (MIC), N.a; assay type: cell-based
[12] = system: Phialophora jeanselmei; assay: Antimicrobial serial dilution (MIC), Ph.je; assay type: cell-based; conditions: Exophiala jeanselmei
[13] = system: Trichophyton mentagrophytes; assay: Antimicrobial serial dilution (MIC), T.m; assay type: cell-based
[14] = system: Hymenolepsis nana; assay: Activity against tapeworms Hymenolepsis nana in mice; assay type: in vivo, Hymenolepsis nana (infected Albimo mice); conditions: Mus musculus, po, 72 h; 400 mg/kg/day × 3 days, gavage; surviving mice only; read-out: Activity: % of infected mice getting 100% clearance
Protocol: The anthelmintic properties of the products of the invention have been determined as follows:
Albimo mice of either sex (18-20 g.weight range) were administered by gavage 0.2 ml of the standard inoculum (containing 1000 viable eggs). 20 days later, the faecal matter was checked for Hymenolipis nana eggs. Mice showing the presence of H nana eggs were taken for experiments. They were classified on the weight basis. 5 animals were taken in each cage.
Compounds of the invention under investigation were suspended in 0.2% tragacanth. Concentrations were adjusted in such a way that 0.2 ml conformed to particular dosage schedule for each compound. They were administered by gavage in fasting condition in the morning on 21st day post infection, once daily for 3 consecutive days. For each set of test compound group, one cage of infected control mice was kept. These received saline for 3 days.
After 3 consecutive days of administration, all mice were kept fasting on the subsequent day (24th day post infection) and sacrificed on the 25th day. Results of surviving mice only have been taken. From each mouse, the whole intestine including caecum was collected in a petri dish with water. It was cut open longitudinally and was examined for adult worms and scolices. Absolute clearance of worms and scolices in individual mouse was taken as a criterion for assessing the results of each group.
The data on some of the compounds studied are represented in Table II

Row | SMILES | MIC [1] | MIC [2] | MIC [3] | MIC [4] | MIC [5] | MIC [6] | MIC [7] | MIC [8] | MIC [9] | MIC [10] | MIC [11] | MIC [12] | MIC [13] | responders at 400 mg/kg [14]
1 | CC(=Cc1ccc(Oc2ncc([N+](=O)[O-])s2)cc1)[N+](=O)[O-] [drawing 9] | 1.56 µg/mL (≈ 5.08 µM) | 50 µg/mL (≈ 163 µM) | 3.12 µg/mL (≈ 10.2 µM) | 3.12 µg/mL (≈ 10.2 µM) | 1.56 to 3.12 µg/mL (≈ 5.08 to 10.2 µM) | ≥ 50 µg/mL | 1.56 µg/mL (≈ 5.08 µM) | – | – | – | – | – | – | –
2 | CC(=Cc1ccc(O)c(Cl)c1)[N+](=O)[O-] [drawing 10] | 3.12 µg/mL (≈ 14.6 µM) | 50 µg/mL (≈ 234 µM) | 25 µg/mL (≈ 117 µM) | 12.5 to 25 µg/mL (≈ 58.5 to 117 µM) | 6.25 µg/mL (≈ 29.3 µM) | ≥ 50 µg/mL | 3.12 µg/mL (≈ 14.6 µM) | – | – | – | – | – | – | –
3 | O=[N+]([O-])C=Cc1cc(Cl)ccc1O [drawing 11] | 3.12 µg/mL (≈ 15.7 µM) | 50 µg/mL (≈ 251 µM) | 50 µg/mL (≈ 251 µM) | 50 µg/mL (≈ 251 µM) | 25 µg/mL (≈ 125 µM) | ≥ 50 µg/mL | 3.12 µg/mL (≈ 15.7 µM) | – | – | – | – | – | – | –
4 | CC(=Cc1ccc(OC(=O)Nc2ccc(Br)cc2)c(Cl)c1)[N+](=O)[O-] [drawing 12] | 6.25 µg/mL (≈ 15.2 µM) | > 50 µg/mL | 25 µg/mL (≈ 60.7 µM) | 50 µg/mL (≈ 121 µM) | 6.25 µg/mL (≈ 15.2 µM) | ≥ 50 µg/mL | 6.25 µg/mL (≈ 15.2 µM) | – | – | – | – | – | – | –
5 | CC(=Cc1ccc(OC(=O)Nc2ccc(C)cc2)cc1)[N+](=O)[O-] [drawing 13] | – | – | – | – | – | – | – | 1.56 to 3.12 µg/mL (≈ 4.99 to 10 µM) | 12.5 µg/mL (≈ 40 µM) | 12.5 µg/mL (≈ 40 µM) | 25.5 µg/mL (≈ 81.6 µM) | 6.25 µg/mL (≈ 20 µM) | 3.12 µg/mL (≈ 10 µM) | –
6 | CC(=Cc1ccc(OC(=O)Nc2ccc(Br)cc2)cc1)[N+](=O)[O-] [drawing 14] | – | – | – | – | – | – | – | 1.56 µg/mL (≈ 4.14 µM) | 22.5 to 25 µg/mL (≈ 59.7 to 66.3 µM) | 12.5 µg/mL (≈ 33.1 µM) | 50 µg/mL (≈ 133 µM) | 1.56 µg/mL (≈ 4.14 µM) | 1.56 µg/mL (≈ 4.14 µM) | –
7 | CCCCNC(=O)Oc1ccc(C=C(C)[N+](=O)[O-])cc1 [drawing 15] | – | – | – | – | – | – | – | 0.39 to 0.78 µg/mL (≈ 1.4 to 2.8 µM) | 12.5 to 25 µg/mL (≈ 44.9 to 89.8 µM) | 6.25 µg/mL (≈ 22.5 µM) | 50 µg/mL (≈ 180 µM) | 0.78 µg/mL (≈ 2.8 µM) | 0.78 µg/mL (≈ 2.8 µM) | –
8 | CC(=Cc1ccc(OC(=O)NC2CCCCC2)cc1)[N+](=O)[O-] [drawing 16] | – | – | – | – | – | – | – | 6.25 µg/mL (≈ 20.5 µM) | 25 µg/mL (≈ 82.1 µM) | 6.25 to 12.5 µg/mL (≈ 20.5 to 41.1 µM) | 50 µg/mL (≈ 164 µM) | 6.25 µg/mL (≈ 20.5 µM) | 0.78 µg/mL (≈ 2.56 µM) | –
9 | CC(=Cc1ccc(OC(=O)Nc2ccccc2)cc1)[N+](=O)[O-] [drawing 17] | – | – | – | – | – | – | – | 3.12 µg/mL (≈ 10.5 µM) | 25 µg/mL (≈ 83.8 µM) | 6.25 µg/mL (≈ 21 µM) | 25 µg/mL (≈ 83.8 µM) | 3.12 µg/mL (≈ 10.5 µM) | 3.12 to 6.25 µg/mL (≈ 10.5 to 21 µM) | –
10 | CC(=Cc1cccc(O)c1)[N+](=O)[O-] [drawing 18] | – | – | – | – | – | – | – | 1.56 µg/mL (≈ 8.71 µM) | 12.5 µg/mL (≈ 69.8 µM) | 6.25 µg/mL (≈ 34.9 µM) | 25 µg/mL (≈ 140 µM) | 3.12 µg/mL (≈ 17.4 µM) | 1.56 µg/mL (≈ 8.71 µM) | –
11 | CC(=Cc1ccc(Oc2ncc([N+](=O)[O-])s2)cc1)[N+](=O)[O-] [drawing 19] | – | – | – | – | – | – | – | 0.39 to 0.78 µg/mL (≈ 1.27 to 2.54 µM) | 3.12 µg/mL (≈ 10.2 µM) | 1.56 µg/mL (≈ 5.08 µM) | 12.5 µg/mL (≈ 40.7 µM) | 0.39 µg/mL (≈ 1.27 µM) | 0.19 µg/mL (≈ 0.618 µM) | –
12 | CC(=Cc1ccc(O)c(Cl)c1)[N+](=O)[O-] [drawing 20] | – | – | – | – | – | – | – | 1.56 µg/mL (≈ 7.3 µM) | 12.5 µg/mL (≈ 58.5 µM) | 6.25 µg/mL (≈ 29.3 µM) | 50 µg/mL (≈ 234 µM) | 3.12 µg/mL (≈ 14.6 µM) | 1.56 µg/mL (≈ 7.3 µM) | –
13 | O=[N+]([O-])C=Cc1cc(Cl)ccc1O [drawing 21] | – | – | – | – | – | – | – | 6.25 to 12.5 µg/mL (≈ 31.3 to 62.6 µM) | 25.5 µg/mL (≈ 128 µM) | 12.5 µg/mL (≈ 62.6 µM) | 25 µg/mL (≈ 125 µM) | 12.5 µg/mL (≈ 62.6 µM) | 6.25 µg/mL (≈ 31.3 µM) | –
14 | CC(=Cc1ccc(OC(=O)Nc2ccc(Br)cc2)c(Cl)c1)[N+](=O)[O-] [drawing 22] | – | – | – | – | – | – | – | 1.56 µg/mL (≈ 3.79 µM) | 25 µg/mL (≈ 60.7 µM) | 6.25 µg/mL (≈ 15.2 µM) | 50 µg/mL (≈ 121 µM) | 3.12 µg/mL (≈ 7.59 µM) | 1.56 µg/mL (≈ 3.79 µM) | –
15 | CC(=Cc1ccc(OC(=O)Nc2ccccc2)cc1)[N+](=O)[O-] [drawing 25] | – | – | – | – | – | – | – | – | – | – | – | – | – | 100%
